For one assay, the target named is Tyk2 (Homo sapiens (Human), UniProt P29597). Briefly: pSTAT4 Cell Assay (MSD, NK92 cells). The class given is cell-based.
The next assay deals with JH2 domain of human Tyk2 (Homo sapiens (Human), UniProt P29597). The assay is described as follows: JH2 Biochemical Assay (TR-FRET probe displacement). The class given is binding.
Setting [1] is: JH2 domain of human Tyk2, TR-FRET probe displacement.
The mark [2] stands for this setting: TR-FRET probe displacement, JH2 domain of human Tyk2.
[3] abbreviates: TR-FRET probe displacement, JH2 domain.

Structures can show the parent of a compound that is named as a salt. Where two headings read alike, the source gives them in different places.

The record followed here is patent publication US20260028365A1 (BIOGEN MA INC., priority 2022, published 2026).

Sequence of Tyk2 (P29597 whole entry, the tested form may be a part): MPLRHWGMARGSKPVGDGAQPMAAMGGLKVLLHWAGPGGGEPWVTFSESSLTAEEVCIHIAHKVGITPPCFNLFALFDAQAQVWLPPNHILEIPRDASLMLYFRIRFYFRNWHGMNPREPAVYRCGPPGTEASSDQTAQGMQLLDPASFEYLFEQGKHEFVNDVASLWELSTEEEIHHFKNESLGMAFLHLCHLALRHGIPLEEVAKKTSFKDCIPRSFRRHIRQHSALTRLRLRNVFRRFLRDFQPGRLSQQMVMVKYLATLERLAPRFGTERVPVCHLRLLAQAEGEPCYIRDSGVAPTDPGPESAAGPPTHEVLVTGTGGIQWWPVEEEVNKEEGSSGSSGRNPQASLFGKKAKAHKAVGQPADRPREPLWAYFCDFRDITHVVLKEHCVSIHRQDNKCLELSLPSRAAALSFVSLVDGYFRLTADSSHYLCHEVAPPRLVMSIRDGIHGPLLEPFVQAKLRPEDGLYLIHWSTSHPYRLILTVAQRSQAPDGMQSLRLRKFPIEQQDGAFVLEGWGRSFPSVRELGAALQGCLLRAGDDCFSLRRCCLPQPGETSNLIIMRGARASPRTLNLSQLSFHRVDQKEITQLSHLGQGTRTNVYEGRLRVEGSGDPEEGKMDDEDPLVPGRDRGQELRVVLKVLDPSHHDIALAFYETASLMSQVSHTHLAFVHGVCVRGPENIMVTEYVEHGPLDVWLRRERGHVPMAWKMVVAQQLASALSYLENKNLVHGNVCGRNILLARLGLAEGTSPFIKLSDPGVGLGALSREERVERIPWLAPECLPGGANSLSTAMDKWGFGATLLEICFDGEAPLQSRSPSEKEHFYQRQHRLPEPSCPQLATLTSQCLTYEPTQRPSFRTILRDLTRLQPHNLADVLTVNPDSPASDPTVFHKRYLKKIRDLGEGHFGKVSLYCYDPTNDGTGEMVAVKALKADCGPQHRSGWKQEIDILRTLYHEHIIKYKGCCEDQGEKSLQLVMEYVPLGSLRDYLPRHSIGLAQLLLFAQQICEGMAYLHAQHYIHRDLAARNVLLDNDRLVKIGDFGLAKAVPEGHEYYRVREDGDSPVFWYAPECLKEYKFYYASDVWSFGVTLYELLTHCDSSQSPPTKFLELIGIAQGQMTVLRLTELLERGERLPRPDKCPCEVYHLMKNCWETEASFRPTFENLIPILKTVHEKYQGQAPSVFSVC
Sequence of JH2 domain of human Tyk2 (P29597 575-876): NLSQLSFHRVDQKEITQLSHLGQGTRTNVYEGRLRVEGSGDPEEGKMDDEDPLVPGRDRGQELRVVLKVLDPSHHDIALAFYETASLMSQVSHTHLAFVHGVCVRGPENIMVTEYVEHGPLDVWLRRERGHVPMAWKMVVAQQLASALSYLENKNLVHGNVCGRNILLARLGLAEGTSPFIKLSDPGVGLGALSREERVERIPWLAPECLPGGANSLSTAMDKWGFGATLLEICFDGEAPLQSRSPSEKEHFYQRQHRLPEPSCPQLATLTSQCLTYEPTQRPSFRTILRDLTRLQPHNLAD

`COCc1nccc(-c2cnc(NC(C)=O)cc2Nc2ccnc(C(C)(F)F)n2)n1` [Example 696, N-(4-((2-(1,1-difluoroethyl)pyrimidin-4-yl)amino)-5-(2-(methoxymethyl)pyrimidin-4-yl)pyridin-2-yl)acetamide]: the IC50 on Tyk2 (MSD) and at JH2 domain of human Tyk2 (setting [1]) was at most 0.01 µM each time.

In the case of `CC(=O)Nc1cc(Nc2cc(C)nc(C(C)(F)F)n2)c(OCC2CCCO2)cn1` (stereo not drawn) [Example 481, N-(4-((2-(1,1-difluoroethyl)-6-methylpyrimidin-4-yl)amino)-5-((tetrahydrofuran-2-yl)methoxy)pyridin-2-yl)acetamide], the IC50 was 0.01 to 0.1 µM against Tyk2 (MSD) and at most 0.01 µM on JH2 domain of human Tyk2 (setting [1]).

`COCc1ccc(-c2cnc(NC(C)=O)cc2Nc2cncc(OC(F)F)n2)nc1` [Example 588, N-(4′-((6-(difluoromethoxy)pyrazin-2-yl)amino)-5-(methoxymethyl)-[2,3′-bipyridin]-6′-yl)acetamide]: the IC50 at Tyk2 (MSD) was 0.01 to 0.1 µM; at JH2 domain of human Tyk2 (setting [1]), at most 0.01 µM.

As to `CCOc1cnc(NC(C)=O)cc1Nc1cc(F)nc(C(C)(F)F)n1` [Example 94, N-(4-((2-(1,1-difluoroethyl)-6-fluoropyrimidin-4-yl)amino)-5-ethoxypyridin-2-yl)acetamide trifluoroacetate], the IC50 at Tyk2 (MSD) was 0.01 to 0.1 µM; at JH2 domain of human Tyk2 (setting [2]) it was at most 0.01 µM.

As for `CC(=O)Nc1cc(Nc2cc(C)nc(C(C)(F)F)n2)c(-c2nnc(C(C)(C)C)s2)cn1` [Example 611, N-(5-(5-(tert-butyl)-1,3,4-thiadiazol-2-yl)-4-((2-(1,1-difluoroethyl)-6-methylpyrimidin-4-yl)amino)pyridin-2-yl)acetamide], the IC50 on Tyk2 (MSD) and on JH2 domain of human Tyk2 (setting [1]) was at most 0.01 µM in each case.

Regarding `CC(=O)Nc1cc(Nc2cc(C)nc(C(C)(C)F)n2)c(-c2cn3cnnc3cn2)cn1` [Example 532, N-(5-([1,2,4]triazolo[4,3-a]pyrazin-6-yl)-4-((2-(2-fluoropropan-2-yl)-6-methylpyrimidin-4-yl)amino)pyridin-2-yl)acetamide], the IC50 against Tyk2 (MSD) was 0.1 to 1 µM; at JH2 domain of human Tyk2 (setting [1]), at most 0.01 µM.

In the case of `CC(=O)Nc1cc(Nc2cc(C)nc(C(C)(F)F)n2)c(OCc2cccnc2)cn1` [Example 355, N-(4-((2-(1,1-difluoroethyl)-6-methylpyrimidin-4-yl)amino)-5-(pyridin-3-ylmethoxy)pyridin-2-yl)acetamide], the IC50 at Tyk2 (MSD) was 0.01 to 0.1 µM; on JH2 domain of human Tyk2 (setting [2]), at most 0.01 µM.

Consider `CC(=O)Nc1cc(Nc2cc(C)nc(C(C)(F)F)n2)c(-c2cn(C)c(C#N)n2)cn1` [Example 601, N-(5-(2-cyanO1-methyl-1H-imidazol-4-yl)-4-((2-(1,1-difluoroethyl)-6-methylpyrimidin-4-yl)amino)pyridin-2-yl)acetamide], for which the IC50 against Tyk2 (MSD) and at JH2 domain of human Tyk2 (setting [1]) was at most 0.01 µM throughout.

As for `CC(=O)Nc1cc(Nc2cc(OC3CC3)nc(C(C)(F)F)n2)c(OCc2ccccn2)cn1` [Example 348, N-(4-((6-cyclopropoxy-2-(1,1-difluoroethyl)pyrimidin-4-yl)amino)-5-(pyridin-2-ylmethoxy)pyridin-2-yl)acetamide], the values for the IC50 at Tyk2 (MSD) and on JH2 domain of human Tyk2 (setting [2]) were 0.01 to 0.1 µM and at most 0.01 µM, respectively.

For `COc1ccnc(COc2cnc(NC(C)=O)cc2Nc2cc(C)nc(C(C)(F)F)n2)n1` [Example 345, N-(4-((2-(1,1-difluoroethyl)-6-methylpyrimidin-4-yl)amino)-5-((4-methoxypyrimidin-2-yl)methoxy)pyridin-2-yl)acetamide], the IC50 is 0.1 to 1 µM against Tyk2 (MSD) and 0.01 to 0.1 µM at JH2 domain of human Tyk2 (setting [2]).

As for `CC(=O)Nc1cc(Nc2cc(C)nc(C(C)(F)F)n2)c(-c2nccc(C3CC3)n2)cn1` [Example 666, N-(5-(4-cyclopropylpyrimidin-2-yl)-4-((2-(1,1-difluoroethyl)-6-methylpyrimidin-4-yl)amino)pyridin-2-yl)acetamide], the IC50 was 0.1 to 1 µM against Tyk2 (MSD) and at most 0.01 µM on JH2 domain of human Tyk2 (setting [1]).

In the case of `CC(=O)Nc1cc(Nc2cc(C)nc(C(C)(F)F)n2)c(OCC2CCO2)cn1` (stereo not drawn) [Example 85, N-(4-((2-(1,1-difluoroethyl)-6-methylpyrimidin-4-yl)amino)-5-(oxetan-2-ylmethoxy)pyridin-2-yl)acetamide], the IC50 at Tyk2 (MSD) is 0.01 to 0.1 µM; at JH2 domain of human Tyk2 (setting [2]), at most 0.01 µM.

Regarding `COC(C)c1ccc(-c2cnc(NC(C)=O)cc2Nc2cc(C)nc(C34COC(C3)C4)n2)nc1` (stereo not drawn) [Example 575, N-(4′-((2-(2-oxabicyclo[2.1.1]hexan-4-yl)-6-methylpyrimidin-4-yl)amino)-5-(1-methoxyethyl)-[2,3′-bipyridin]-6′-yl)acetamide], the IC50 against Tyk2 (MSD) and at JH2 domain of human Tyk2 (setting [1]) was at most 0.01 µM each time.

For `CCc1cc(Nc2cc(NC(C)=O)ncc2-c2cnc(NC)cn2)nc(C(C)(F)F)n1` [Example 860, N-(4-((2-(1,1-difluoroethyl)-6-ethylpyrimidin-4-yl)amino)-5-(5-(methylamino)pyrazin-2-yl)pyridin-2-yl)acetamide], the IC50 on Tyk2 is at least 1 µM; on JH2 domain of human Tyk2 (setting [3]) it was 0.1 to 1 µM.

With `CCc1cc(Nc2cc(NC(C)=O)ncc2-c2cnc(C3COCCO3)cn2)nc(C(C)(F)F)n1` (stereo not drawn) [Example 898, N-(5-(5-(1,4-dioxan-2-yl)pyrazin-2-yl)-4-((2-(1,1-difluoroethyl)-6-ethylpyrimidin-4-yl)amino)pyridin-2-yl)acetamide], the IC50 at Tyk2 and at JH2 domain of human Tyk2 (setting [3]) was at most 0.01 µM throughout.

Turning to `CC(=O)Nc1cc(Nc2cc(C)nc(C(C)(F)F)n2)c(-c2ccc(COC(F)F)cn2)cn1` [Example 524, N-(4′-((2-(1,1-difluoroethyl)-6-methylpyrimidin-4-yl)amino)-5-((difluoromethoxy)methyl)-[2,3′-bipyridin]-6′-yl)acetamide], the IC50 against Tyk2 (MSD) and at JH2 domain of human Tyk2 (setting [1]) was at most 0.01 µM in each case.

`COc1cnc(-c2cnc(NC(C)=O)cc2Nc2cc(C)nc(C(C)(F)F)n2)nc1` [Example 656, N-(4-((2-(1,1-difluoroethyl)-6-methylpyrimidin-4-yl)amino)-5-(5-methoxypyrimidin-2-yl)pyridin-2-yl)acetamide]: the IC50 at Tyk2 (MSD) and on JH2 domain of human Tyk2 (setting [1]) was at most 0.01 µM in each case.

On to `CCc1cc(Nc2cc(NC(C)=O)ncc2-c2ccc(COC)cn2)nc(C(C)(F)F)n1` [Example 846, N-(4′-((2-(1,1-difluoroethyl)-6-ethylpyrimidin-4-yl)amino)-5-(methoxymethyl)-[2,3′-bipyridin]-6′-yl)acetamide], for which the IC50 on Tyk2 and at JH2 domain of human Tyk2 (setting [3]) was at most 0.01 µM each time.

`CC(=O)Nc1cc(Nc2ccnc(C(C)(C)F)n2)c(-c2cc(C)ncn2)cn1` [Example 198, N-(4-((2-(2-fluoropropan-2-yl)pyrimidin-4-yl)amino)-5-(6-methylpyrimidin-4-yl)pyridin-2-yl)acetamide]: the IC50 at Tyk2 (MSD) was 0.01 to 0.1 µM; at JH2 domain of human Tyk2 (setting [2]), at most 0.01 µM.

With `CC(=O)Nc1cc(Nc2cc(C)nc(C(C)(F)F)n2)c(-n2cc(C#N)cn2)cn1` [Example 733, N-(5-(4-cyanO1H-pyrazol-1-yl)-4-((2-(1,1-difluoroethyl)-6-methylpyrimidin-4-yl)amino)pyridin-2-yl)acetamide], the figures for the IC50 against Tyk2 (MSD) and on JH2 domain of human Tyk2 (setting [1]) were 0.1 to 1 µM and at most 0.01 µM, respectively.

`CC(=O)Nc1cc(Nc2cc(C)cc(C(C)(F)F)n2)c(-c2ncc(F)cn2)cn1` [Example 190, N-(4-((6-(1,1-difluoroethyl)-4-methylpyridin-2-yl)amino)-5-(5-fluoropyrimidin-2-yl)pyridin-2-yl)acetamide]: the values for the IC50 against Tyk2 (MSD) and at JH2 domain of human Tyk2 (setting [2]) were 0.01 to 0.1 µM and at most 0.01 µM, respectively.
